Patent publication US10654834B2 (Venenum Biodesign, LLC, priority 2016, dated 2020)

Key:
human TGR5 receptor = target: T1, human TGR5 receptor (Homo sapiens, UniProt Q8TDU6); assay: Human TGR5 cAMP production assay (hTGR5-CHO cells, DiscoveRx cAMP XS+ kit); assay type: cell-based; details: luminescent cAMP assay, read-out: Human TGR5 Lum. cAMP Activity (EC50)
T1 construct: host or cells: CHO-K1 (hTGR5-CHO)
T1 sequence (Q8TDU6 1-330): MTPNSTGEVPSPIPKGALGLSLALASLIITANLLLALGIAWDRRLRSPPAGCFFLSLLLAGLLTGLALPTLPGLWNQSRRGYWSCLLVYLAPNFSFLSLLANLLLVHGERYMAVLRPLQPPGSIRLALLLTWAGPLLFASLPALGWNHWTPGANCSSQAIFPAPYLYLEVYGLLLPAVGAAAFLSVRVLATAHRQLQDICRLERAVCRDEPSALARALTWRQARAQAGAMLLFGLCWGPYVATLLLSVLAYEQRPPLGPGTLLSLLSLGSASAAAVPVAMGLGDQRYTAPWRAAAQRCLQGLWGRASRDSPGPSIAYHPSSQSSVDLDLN
Experimental: Human TGR5 cAMP Production Assay
Compounds of the present invention were evaluated for their ability to induce cAMP production using CHO-K1 cells overexpressing the human TGR5 receptor.
CHO-K1 cells stably expressing human TGR5 receptor (accession number NM_001077194.1) (hTGR5) (i.e., hTGR5-CHO cells) were purchased from DiscoveRx Corporation (Fremont, Calif.). hTGR5-CHO cells were grown in Ham's F-12 media supplemented with 10% Fetal Bovine Serum, 1% Penicillin-Streptomycin, 2 mM L-Alanine L-Glutamine (Glutamax), and 800 μg/mL Geneticin selection. The cAMP production assay was performed using DiscoveRx's cAMP XS+ kit (Catalog No. 90-0075XL) following the manufacturer's recommended protocol. Briefly, hTGR5-CHO cells were harvested using non-enzymatic cell dissociation buffer (Sigma-Aldrich, St. Louis, Mo.) and 1×10^6 cells were combined in Phosphate-Buffered Saline (PBS) to a final volume of 496 μL to which 4 μL of 125 mM IBMX (Sigma-Aldrich, St. Louis, Mo.) was added. 500 μL of cAMP antibody solution was added to the harvested cells and incubated at room temperature for 20 min.
Test compounds were serially diluted (half-log dilutions) in DMSO and then further diluted 1:50 in PBS, 10 mM HEPES buffer. 2 μL of serially diluted compound was added to a 384-well low volume plate (Greiner; cat #784075) and centrifuged briefly. 2 μl of the cell/cAMP antibody mixture was then added to each compound-containing well and allowed to incubate at room temperature for one hour. Following incubation, the XS+ kits' ED/Lysis/CL Substrate Working Solution was prepared following the manufacturer's recommended protocol and 4 μL was added to each well of the plate. The plate was then incubated for one hour at room temperature. Following incubation, 4 μL of Enzyme Acceptor reagent was added to the plate and allowed to incubate overnight at room temperature. Luminescent signal was then detected using the Viewlux instrument (Perkin-Elmer, Waltham, Mass.).
Human and Mouse TGR5 cAMP
(§1) In Table 52, EC50 values for both human and mouse cells were determined according to the TGR5 cAMP assays described above. […]

mouse TGR5 receptor = target: T2, mouse TGR5 receptor (Mus musculus, UniProt Q80SS6); assay: Mouse TGR5 HTRF cAMP production assay (HEK293-EBNA cells, Cisbio cAMP HiRange kit); assay type: cell-based; details: HEK293-EBNA cells overexpressing mouse TGR5, HTRF cAMP assay
T2 construct: host or cells: HEK293-EBNA (293 c18, ATCC CRL10852)
T2 sequence (Q80SS6 1-329): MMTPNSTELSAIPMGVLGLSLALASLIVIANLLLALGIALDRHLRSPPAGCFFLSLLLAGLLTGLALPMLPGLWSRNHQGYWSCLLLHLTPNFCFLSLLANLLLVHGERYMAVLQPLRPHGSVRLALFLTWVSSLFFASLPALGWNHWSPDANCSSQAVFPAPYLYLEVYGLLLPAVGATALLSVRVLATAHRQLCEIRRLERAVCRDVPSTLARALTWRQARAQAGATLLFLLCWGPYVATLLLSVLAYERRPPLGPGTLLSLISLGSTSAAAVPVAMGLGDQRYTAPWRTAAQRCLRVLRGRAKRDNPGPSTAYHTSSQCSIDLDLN
Experimental: Mouse TGR5 cAMP Production Assay
Compounds of the present invention were evaluated for their ability to induce cAMP production in HEK-EBNA cells overexpressing the mouse TGR5 receptor. Human embryonic kidney cells (HEK293-EBNA) stably expressing mouse TGR5 receptor were established using the following procedure. Specifically, a commercially obtained gene encoding mouse TGR5 (accession number BC116914) from Thermo Scientific (Waltham, Mass.) was cloned into an episomal expression vector. The resulting expression plasmid was then transfected into 293 c18 (ATCC® CRL10852™) cells, which express the Epstein-Barr virus nuclear antigen EBNA1 and can support the replication of episomal vectors. Selection for the plasmid was maintained with Hygromycin B. Cells were cultured and maintained in DMEM (Sigma; cat #6429) supplemented with 10% Fetal Bovine Serum, 1% penicillin/streptomycin, 2 mM L-alanine L-glutamine (GlutaMax), and 250 μg/mL Hygromycin.
We developed two cAMP production assays.
(ii) HTRF cAMP Production Assay
In this second cAMP production assay, the cAMP production was measured in 384-well low volume plates (Greiner; cat #784075) using the Cisbio™ cAMP HiRange HTRF Assay Kit (CisBio) according to the manufacturer's protocol.
Briefly, compounds were initially diluted in 100% DMSO (12-point serial dilution by half logs) in a 96-well plate and then were further diluted 1:50 in PBS containing 10 mM HEPES. 5 μL were transferred to the 384-well assay plate in duplicate. HEK293-EBNA cells stably overexpressing mouse TGR5 were harvested using non-enzymatic cell dissociation buffer (Sigma), spun down, then resuspended in serum-free DMEM with 500 μM IBMX at a density of 500,000 cells/mL. 5 μL of cell suspension was transferred to each well of the 384-well assay plate already containing compound. The plate was covered and incubated at room temperature for 1 hour. The d2-cAMP and anti-cAMP Ab-cryptate stock solutions were prepared as per kit instructions. Then 5 μL of each conjugate (d2 and cryptate) were added to each well of the assay plate. The plate was covered and incubated at room temperature for one (1) hour. The plate was read on an Envision™ plate reader (PerkinElmer).
as §1

Row | SMILES | EC50 (human TGR5 receptor) | EC50 (mouse TGR5 receptor)
1 | CC(C)(C)OC(=O)CCNc1c(NCCC2CCN(c3cc(N4CC[C@H]4C(=O)NCCc4ccc(C#N)cc4)nc(C(F)(F)F)n3)CC2)c(=O)c1=O [Compound 300, (S)-tert-butyl 3-((2-((2-(1-(6-(2-((4-cyanophenethyl)carbamoyl)azetidin-1-yl)-2-(trifluoromethyl)pyrimidin-4-yl)piperidin-4-yl)ethyl)amino)-3,4-dioxocyclobut-1-en-1-yl)amino)propanoate] | 0.1 to 0.999 µM | < 0.1 µM
2 | N#Cc1ccc(CCNC(=O)[C@@H]2CCCN2c2cc(-c3cccc(CCC(=O)NCCS(=O)(=O)O)c3)nc(C(F)(F)F)n2)cc1 [Compound 190, (S)-2-(3-(3-(6-(2-((4-cyanophenethyl)-carbamoyl)pyrrolidin-1-yl)-2-(trifluoromethyl)pyrimidin-4-yl)phenyl)-propanamido)ethanesulfonic acid] | 1 to 30 µM | < 0.1 µM
3 | N=C(N)N1CCC(C2CCN(c3cc(N4CC[C@H]4C(=O)NCCc4ccc(C(F)(F)F)cc4)nc(C(F)(F)F)n3)CC2)CC1 [Compound 289, (S)-1-(6-(1′-carbamimidoyl-[4,4′-bipiperidin]-1-yl)-2-(trifluoromethyl)pyrimidin-4-yl)-N-(4-(trifluoromethyl)phenethyl)-azetidine-2-carboxamide] | < 0.1 µM | < 0.1 µM
4 | N#Cc1ccc(CCNC(=O)[C@@H]2CCCN2c2cc(N3CCC(CCCC(=O)NCCNC(=O)CS(=O)(=O)O)CC3)nc(C(F)(F)F)n2)cc1 [Compound 124, (S)-2-((2-(4-(1-(6-(2-((4-cyanophenethyl)carbamoyl)pyrrolidin-1-yl)-2-(trifluoromethyl)pyrimidin-4-yl)piperidin-4-yl)butanamido)-ethyl)amino)-2-oxoethanesulfonic acid] | < 0.1 µM | < 0.1 µM
5 | N#CCCC1CCN(c2cc(N3CCC[C@@H](C(=O)NCCc4ccc(C#N)cc4)C3)nc(C(F)(F)F)n2)CC1 [Compound 311, (R)-1-(6-(4-(2-cyanoethyl)piperidin-1-yl)-2-(trifluoromethyl)pyrimidin-4-yl)-N-(4-cyanophenethyl)piperidine-3-carboxamide] | < 0.1 µM | < 0.1 µM
6 | N#Cc1ccc(CCNC(=O)[C@@H]2CCCN2c2cc(N3CCC(CCCNC(=O)NCS(=O)(=O)O)CC3)cc(C(F)(F)F)n2)cc1 [Compound 201, (S)-(3-(3-(1-(2-(2-((4-cyanophenethyl)carbamoyl)pyrrolidin-1-yl)-6-(trifluoromethyl)pyridin-4-yl)piperidin-4-yl)propyl)ureido)methanesulfonic acid] | 0.1 to 0.999 µM | < 0.1 µM
7 | N#Cc1ccc(CCNC(=O)[C@@H]2CCCN2c2cc(-c3ccc(C(=O)O)s3)nc(C(F)(F)F)n2)cc1 [Compound 181, (S)-5-(6-(2-((4-cyanophenethyl)carbamoyl)pyrrolidin-1-yl)-2-(trifluoromethyl)pyrimidin-4-yl)thiophene-2-carboxylic acid] | 0.1 to 0.999 µM | < 0.1 µM
8 | O=C(CS(=O)(=O)O)NCCC1CCN(c2cc(N3CC[C@H]3C(=O)NCCc3ccc(C(F)(F)F)cc3)nc(C(F)(F)F)n2)CC1 [Compound 279, (S)-2-oxo-2-((2-(1-(2-(trifluoromethyl)-6-(2-((4-(trifluoromethyl)phenethyl)carbamoyl)azetidin-1-yl)pyrimidin-4-yl)piperidin-4-yl)ethyl)amino)-ethanesulfonic acid] | < 0.1 µM | < 0.1 µM
9 | N#Cc1ccc(CCNC(=O)[C@@H]2CCCN2c2cc(N3CCC(CCCC(=O)N4CCN(CC(=O)O)CC4)CC3)nc(C(F)(F)F)n2)cc1 [Compound 108, (S)-2-(4-(4-(1-(6-(2-((4-cyanophenethyl)carbamoyl)pyrrolidin-1-yl)-2-(trifluoromethyl)pyrimidin-4-yl)piperidin-4-yl)butanoyl)piperazin-1-yl)acetic acid] | < 0.1 µM | < 0.1 µM
10 | N#Cc1ccc(CCNC(=O)[C@@H]2CCCN2c2cc(N3CCC(CCNC(=O)N[C@H](CC(=O)O)C(=O)O)CC3)nc(C(F)(F)F)n2)cc1 [Compound 82, (R)-2-(3-(2-(1-(6-((S)-2-((4-cyanophenethyl)carbamoyl)pyrrolidin-1-yl)-2-(trifluoromethyl)pyrimidin-4-yl)piperidin-4-yl)ethyl)ureido)succinic acid] | < 0.1 µM | < 0.1 µM
11 | N#Cc1ccc(CCNC(=O)[C@@H]2CCN2c2cc(N3CCN(CCO)CC3)nc(C(F)(F)F)n2)cc1 [Compound 224, (S)-N-(4-cyanophenethyl)-1-(6-(4-(2-hydroxyethyl)piperazin-1-yl)-2-(trifluoromethyl)pyrimidin-4-yl)azetidine-2-carboxamide] | 0.1 to 0.999 µM | < 0.1 µM
12 | N#Cc1ccc(CCNC(=O)[C@@H]2CCCN(c3cc(N4CCN(CC(=O)O)CC4)nc(C(F)(F)F)n3)C2)cc1 [Compound 315, (R)-2-(4-(6-(3-((4-cyanophenethyl)carbamoyl)piperidin-1-yl)-2-(trifluoromethyl)pyrimidin-4-yl)piperazin-1-yl)acetic acid] | 1 to 30 µM | < 0.1 µM
13 | CN(C)CCC1CCN(c2cc(N3CCC[C@H]3C(=O)NCCc3ccc(C#N)cc3)nc(C(F)(F)F)n2)CC1 [Compound 21] | < 0.1 µM | 0.1 to 0.999 µM
14 | N#Cc1ccc(CCNC(=O)[C@@H]2CCN2c2cc(N3CCC(CCCC(=O)NCCO)CC3)nc(C(F)(F)F)n2)cc1 [Compound 361, (S)-N-(4-cyanophenethyl)-1-(6-(4-(4-((2-hydroxyethyl)amino)-4-oxobutyl)piperidin-1-yl)-2-(trifluoromethyl)pyrimidin-4-yl)azetidine-2-carboxamide] | < 0.1 µM | < 0.1 µM
15 | CC(=O)NCCOCCNC(=O)NCCC1CCN(c2cc(N3CC[C@H]3C(=O)NCCc3ccc(C#N)cc3)nc(C(F)(F)F)n2)CC1 [Compound 359, (S)-N-(4-cyanophenethyl)-1-(6-(4-(4,12-dioxo-8-oxa-3,5,11-triazatridecyl)piperidin-1-yl)-2-(trifluoromethyl)pyrimidin-4-yl)azetidine-2-carboxamide] | < 0.1 µM | < 0.1 µM
